Results taken from US4514330A, “Carbon-7-substituted atinomycin D analogue” (Trustees of Boston University, priority 1983, dated 1985).
≈ marks a conversion by molar mass, not a printed value. Where two headings read alike, the source gives them in different places.

Columns and labels:
[1] = tested on: human lymphoblastic leukemic cells (CCRF-CEM); assay: In vitro growth-inhibitory activity against human lymphoblastic leukemic cells (CCRF-CEM) in log phase; assay type: cell-based; settings: for IC50: Homo sapiens, final growth medium contained 1% Me2SO, log phase, read-out: ID50 (in vitro growth inhibition, CCRF-CEM)
Procedure: ^b Using human lymohoblastic leukemia cells in logplastic growth.
Compounds were dissolved in Me2 So medium, final growth medium

[2] = tested on: P-388 leukemia; assay: In vivo antitumor activity against P-388 lymphocytic leukemia in CDF1 mice; settings: for % ILS (percent increase in life span) / MST (median survival time) / cure (over 55 day survivors): days 1, 5, 9; for minimal effective dose: Mus musculus, P388, ip, read-out: MED (minimum effective dose, 40% increase in life span over control); for fold increase in survival time over AMD (1b) or 7-hydroxyactinomycin D (2b): optimal nontoxic dose levels
Procedure: Studies on in vivo activity of AMD and AMD analogues were carried out with P-388 lymphocytic leukemia in CDF1 hybrid mice. The drugs were administered either daily for 4 successive days (qd 1-4) or on days 1, 5 and 9 (q4d 1, 5, 9) beginning 1 day after tumor implantation.
^a Male CDF1 (18-23 g) mice were inoculated intraperitoneally
(ip) with 10^6 P388 cells on day 0. Drugs were administered, also ip,
in 10% dimethyl sulfoxidesaline on days 1, 5 and 9. Test solutions were
kept at 0-4° C., protected from light, and the stability and
homogeneity were checked periodically by TLC and HPLC.
^b MST = median survival time.
^c % ILS = percent increase in life span.
^d Over 55 day survivors. Average of three experiments. The
^a Drugs administed ip once daily either for 4 successive days (qd
1-4) or on days 1, 5 and 9 (q4d 1, 5 9), starting 1 day after tumor
^b MED (minimum effective dose) is the dose (milligrams/kilogram)
providing an increase in life span of 40% over control in P388

[3] = tested on: DNA; assay: DNA-binding mode, covalent and noncovalent (statements)
[4] = three injections ip, q4d 1, 5, 9

Structure (SMILES): Cc1c2oc3c(C)c(OCC4CO4)cc(C(=O)N[C@@H]4C(=O)N[C@H](C(C)C)C(=O)N5CCC[C@H]5C(=O)N(C)CC(=O)N(C)[C@@H](C(C)C)C(=O)O[C@@H]4C)c3nc-2c(C(=O)N[C@@H]2C(=O)N[C@H](C(C)C)C(=O)N3CCC[C@H]3C(=O)N(C)CC(=O)N(C)[C@@H](C(C)C)C(=O)O[C@@H]2C)c(N)c1=O (some centres unmarked) [Compound 3b, 7-(2,3-Epoxypropoxy)actinomycin D]
- IC50 [1]: 0.009 µg/mL (≈ 0.00678 µM)
- times more cytotoxic than AMD ([1]; vs AMD): about sevenfold
- % ILS (percent increase in life span) ([2]; 0.15 mg/kg ip): 164%
- MST (median survival time) ([2]; 0.15 mg/kg ip): 29 days
- cure (over 55 day survivors) ([2]; 0.15 mg/kg ip): 0/7
- % ILS (percent increase in life span) ([2]; 0.30 mg/kg ip): 263%
- MST (median survival time) ([2]; 0.30 mg/kg ip): 40 days
- cure (over 55 day survivors) ([2]; 0.30 mg/kg ip): 1/7
- % ILS (percent increase in life span) ([2]; 0.60 mg/kg ip): 255%
- MST (median survival time) ([2]; 0.60 mg/kg ip): 41 days
- cure (over 55 day survivors) ([2]; 0.60 mg/kg ip): 1/7
- % ILS (percent increase in life span) ([2]; 1.20 mg/kg ip): 291%
- MST (median survival time) ([2]; 1.20 mg/kg ip): 43 days
- cure (over 55 day survivors) ([2]; 1.20 mg/kg ip): 3/7
- % ILS (percent increase in life span) ([2]; 1.80 mg/kg ip): 300%
- MST (median survival time) ([2]; 1.80 mg/kg ip): 44 days
- cure (over 55 day survivors) ([2]; 1.80 mg/kg ip): 3/7
- % ILS (percent increase in life span) ([2]; 2.40 mg/kg ip): 136%
- MST (median survival time) ([2]; 2.40 mg/kg ip): 26 days
- cure (over 55 day survivors) ([2]; 2.40 mg/kg ip): 2/7
- minimal effective dose ([2]; four injections ip, qd 1-4): 0.0375 mg/kg
- minimal effective dose [2, 4]: 0.05 mg/kg
- therapeutic index: MTD/MED ([2]; four injections ip, qd 1-4): 43
- breadth of dose-response curve ([2]; ip, q4d 1, 5, 9): very broad
- overall activity relative to AMD ([2]; ip, q4d 1, 5, 9): superior to AMD
- cure (tumor free), animals out of seven treated ([2]; optimal dose ranges of 1.2 and 1.8 mg/kg, ip, q4d 1, 5, 9): three
- fold increase in survival time over AMD (1b) or 7-hydroxyactinomycin D (2b) ([2]; ip, q4d 1, 5, 9): ~2.5 fold
- therapeutic index: MTD/MED [2, 4]: 72
- long-term survivors ([2]; throughout the dose range, ip, q4d 1, 5, 9): long-term survivors throughout this dose range
- covalent binding to DNA ([3]; 37° C. or higher, or longer incubation (~20 h)): can bind covalently to DNA
- DNA-binding property relative to AMD ([3]; ambient temperature): closely parallel to AMD

Structure (SMILES): Cc1c2oc3c(C)c(OCC(O)CO)cc(C(=O)N[C@@H]4C(=O)N[C@H](C(C)C)C(=O)N5CCC[C@H]5C(=O)N(C)CC(=O)N(C)[C@@H](C(C)C)C(=O)O[C@@H]4C)c3nc-2c(C(=O)N[C@@H]2C(=O)N[C@H](C(C)C)C(=O)N3CCC[C@H]3C(=O)N(C)CC(=O)N(C)[C@@H](C(C)C)C(=O)O[C@@H]2C)c(N)c1=O (some centres unmarked) [Compound 4b, 7-(2,3-Dihydroxypropoxy) actinomycin D]
- IC50 [1]: 0.085 µg/mL (≈ 0.0632 µM)
- times less cytotoxic than AMD ([1]; vs AMD): about 1.5 times
- % ILS (percent increase in life span) ([2]; 0.15 mg/kg ip): 45%
- MST (median survival time) ([2]; 0.15 mg/kg ip): 16 days
- cure (over 55 day survivors) ([2]; 0.15 mg/kg ip): 0/7
- % ILS (percent increase in life span) ([2]; 0.30 mg/kg ip): 82%
- MST (median survival time) ([2]; 0.30 mg/kg ip): 20 days
- cure (over 55 day survivors) ([2]; 0.30 mg/kg ip): 2/7
- % ILS (percent increase in life span) ([2]; 0.60 mg/kg ip): 136%
- MST (median survival time) ([2]; 0.60 mg/kg ip): 25 days
- cure (over 55 day survivors) ([2]; 0.60 mg/kg ip): 1/7
- % ILS (percent increase in life span) ([2]; 1.20 mg/kg ip): 191%
- MST (median survival time) ([2]; 1.20 mg/kg ip): 32 days
- cure (over 55 day survivors) ([2]; 1.20 mg/kg ip): 0/7
- % ILS (percent increase in life span) ([2]; 1.80 mg/kg ip): 36%
- MST (median survival time) ([2]; 1.80 mg/kg ip): 15 days
- cure (over 55 day survivors) ([2]; 1.80 mg/kg ip): 0/7
- minimal effective dose ([2]; four injections ip, qd 1-4): 0.125 mg/kg
- minimal effective dose [2, 4]: 0.15 mg/kg
- therapeutic index: MTD/MED ([2]; four injections ip, qd 1-4): 6
- fold increase in survival time over AMD (1b) or 7-hydroxyactinomycin D (2b) ([2]; ip, q4d 1, 5, 9): ~1.5 fold
- therapeutic index: MTD/MED [2, 4]: 12
